Measured values reported in patent US20180028690A1, “INDOCYANINE GREEN FORMULATIONS AND METHODS FOR IMAGING OF THE URINARY PATHWAYS” (Yissum Reseach Development Company of the Herbrew …, priority 2015, published 2018).
Several values for one entry are separate records, joined by “and”; a condition that tells them apart may be missing. Identical values can stand only once.

Tests used:
[1] = Whole body NIR imaging (IVIS Kinetic) after intravenous injection; type: in vivo, Female FVB mice
Procedure: Mice were shaved under isoflurane (1-2%, v/v) anesthesia and underwent baseline scans using an IVIS Kinetic® in vivo imaging system (Caliper Life Sciences, Hopkinton, Mass., USA). Two hundred μl of 8 mg/kg Phospholipon® 50 ICG liposomes or the free compound in 2 mM sucrose buffer (phosphate buffer pH 7, with 9.3% w/w sucrose) were injected into the tail vein and the mice were repetitively scanned over a time period of up to 120 min.
Analysis of in vivo ICG pharmacokinetics (PK), including region of interest (ROI) placement (Living Image; PerkinElmer, Waltham, Mass., USA; (Schneider et al., 2012)) and calculation of the area under the concentration-time curve (AUC) from the time of injection to the time of the last measurement (Phoenix WinNonlin; Certara; St. Louis, Mo., USA), was conducted as previously described (Portnoy et al., 2012). Partial areas were calculated for the AUC between the time of ICG injection (0 min) and 60 or 120 min after injection (AUC0-60 min and AUC0-120 mm, respectively). Data are presented as means±SD. The non-parametric Mann-Whitney or Kruskal-Wallis tests, as appropriate, were used to determine the statistical significance of difference (p<0.05) between experimental groups (InStat; GraphPad, La Jolla, Calif., USA).

[2] = Imaging of surgically exposed kidneys and ureters after midline laparotomy; type: in vivo, Female FVB mice; conditions: P<0.01
Procedure: An additional cohort of animals was used for further studies of the accumulation of liposomal ICG in the urinary system. Liposomal or free ICG was injected into the tail vein, and 3 min later, mice were treated with high dose pentobarbital administered intraperitoneally. Overall time of active circulation after the ICG injection was about 10 min. Thereafter, mice were subjected to midline laparotomy with full exposure of the retroperitoneum. The ureters were identified in their origin from the kidneys, and distally clipped or loosely tied for identification. The mice were also hysterectomyzed to ease the urinary bladder identification. Subsequently, the animals were scanned by the Typhoon FLA 9500 biomolecular imager. Each experiment was repeated at least three times.

[3] = Fluorescence spectra and relative quantum yield of ICG-adsorbed liposomes vs ICG in aqueous solution; type: physicochemical
Procedure: The fluorescence spectra of the ICG-adsorbed liposomes prepared were evaluated in comparison to those of ICG in aqueous solution.
The relative quantum yield was calculated according to the following equation (Fery-Forgues and Lavabre, 1999):
where φ is the quantum yield, F is the area under the emission peak (expressed in number of photons), A is absorbance at the excitation wavelength, and n is the refractive index of the solvents. The subscript x denotes the respective values of the sample (liposome-ICG), and s denotes standard (free ICG in buffer).

[4] = Stability of ICG absorption at light and at dark over time; type: physicochemical; conditions: aqueous solution or adsorbed to liposomes
Procedure: The red shift is accompanied with quenching of fluorescence, i.e., the larger the red shift the lower the fluorescence intensity. Because the fluorescence intensity of ICG-liposomes was greater than that of unbound ICG molecules (aqueous solution), the quantum yield ratio between the two states in which ICG is present was determined, for a concentration of 1.28×10^−3 mM. ICG is poorly stable in aqueous solutions due to degradation, and therefore, in order to evaluate the stability of the ICG-adsorbed liposomes, the absorption of this fluorescent probe, when dissolved in an aqueous solution or adsorbed to the liposomes, was measured at light and at dark over time.

[5] = Ureter imaging with ICG-HPβCD inclusion complex vs free ICG (Typhoon imager); type: in vivo, female FVB mice; conditions: 8 mg/kg ICG, 10 min post injection
Procedure: 60 mg of ICG (Acros) was solubilized in 12.5 ml of DDW. 2 ml of ICG solution were added to 10 ml of phosphate buffer (pH 7, 2 mM, and sucrose 9.3% w/w). 18.5 mg of HPβCD (Acros) were added to ICG buffered solution and mixed for 10 h at 4° C. […] Mice were sacrificed 10 min post injection and imaged by Typhoon imager (General Electric).

[6] = literature (Bax 1980; Cherrick 1960); cited from earlier work

SMILES: CC1(C)C(/C=C/C=C/C=C/C=C2\N(CCCCS(=O)(=O)O)c3ccc4ccccc4c3C2(C)C)=[N+](CCCCS(=O)(=O)[O-])c2ccc3ccccc3c21 [free ICG, indocyanine green]
- urinary bladder/feet AUC0-60 min ratio of emission intensity ([1]; 8 mg/kg ICG i.v., feet-normalized AUC, 0-60 min): 2.3±0.5
- urinary bladder/feet AUC0-120 min ratio of emission intensity ([1]; 8 mg/kg ICG i.v., feet-normalized AUC, 0-120 min): 2.3±0.4
- emission intensity AUC of the urinary bladder relative to that of the feet ([1]; control mice, 8 mg/kg i.v.): 2.3 fold
- ureteral emission normalized to renal emission (ureters/kidneys ratio) [2]: 0.56±0.10 and 0.5
- ICG emission peak in water, shift ([3]; concentrations above 6.4×10^−3 mM): up to 814 nm
- ICG emission peak in water ([3]; concentrations less than 6.4×10^−3 mM): 805 nm
- absorption over time at light and at dark (stability) [4]: decreases over time both in light and in dark
- labelling of ureters [5]: did not
- renal excretion [5]: negligibly excreted in the urine
- half life in plasma [6]: in the minutes range
- renal elimination after systemic administration [6]: negligible
